In BindingDB's records for doi:10.1021/jm970517u (Merck Research Laboratories, 1998):

Test: Half maximal inhibition of binding of [125I]CCK-8 to Cholecystokinin type B receptor in guinea pig cerebral cortex.

SMILES | IC50 [nM]
O=C(Cc1ccc(C(F)(F)F)cc1C(F)(F)F)N[C@@H]1N=C(c2ccccc2)c2ccccc2N(CC(F)(F)F)C1=O [2-(2,4-Bis-trifluoromethyl-phenyl)-N-[(R)-2-oxo-5-phenyl-1-(2,2,2-trifluoro-ethyl)-2,3-dihydro-1H-benzo[e][1,4]diazepin-3-yl]-acetamide] | > 1000
O=C(Cc1ccc(C(F)(F)F)cc1C(F)(F)F)N[C@H]1N=C(c2ccccc2)c2ccccc2N(CC(F)(F)F)C1=O [2-(2,4-Bis-trifluoromethyl-phenyl)-N-[(S)-2-oxo-5-phenyl-1-(2,2,2-trifluoro-ethyl)-2,3-dihydro-1H-benzo[e][1,4]diazepin-3-yl]-acetamide] | > 1000
CC(C)N1C(=O)[C@H](NC(=O)Cc2cc(Cl)cc(Cl)c2)N=C(c2ccccc2)c2ccccc21 [2-(3,5-Dichloro-phenyl)-N-((R)-1-isopropyl-2-oxo-5-phenyl-2,3-dihydro-1H-benzo[e][1,4]diazepin-3-yl)-acetamide] | > 1000
CN1C(=O)[C@H](NC(=O)C(N)Cc2ccccc2)N=C(c2ccccc2)c2ccccc21 (stereo partly drawn) [2-Amino-N-((R)-1-methyl-2-oxo-5-phenyl-2,3-dihydro-1H-benzo[e][1,4]diazepin-3-yl)-3-phenyl-propionamide] | > 1000
CN1C(=O)[C@H](NC(=O)CCc2ccc(Cl)cc2Cl)N=C(c2ccccc2)c2ccccc21 [3-(2,4-Dichloro-phenyl)-N-((R)-1-methyl-2-oxo-5-phenyl-2,3-dihydro-1H-benzo[e][1,4]diazepin-3-yl)-propionamide] | > 1000
CN(C)CCN1C(=O)C(NC(=O)CCc2ccc(Cl)cc2Cl)N=C(c2ccccc2)c2ccccc21 (centres undefined) [3-(2,4-Dichloro-phenyl)-N-[1-(2-dimethylamino-ethyl)-2-oxo-5-phenyl-2,3-dihydro-1H-benzo[e][1,4]diazepin-3-yl]-propionamide] | > 1000
CC(=O)Nc1ccc(CCC(=O)N[C@@H]2N=C(c3ccccc3)c3ccccc3N(C)C2=O)cc1 [3-(4-Acetylamino-phenyl)-N-((R)-1-methyl-2-oxo-5-phenyl-2,3-dihydro-1H-benzo[e][1,4]diazepin-3-yl)-propionamide] | > 1000
CN1C(=O)[C@H](NC(=O)CCc2ccc(N)cc2)N=C(c2ccccc2)c2ccccc21 [3-(4-Amino-phenyl)-N-((R)-1-methyl-2-oxo-5-phenyl-2,3-dihydro-1H-benzo[e][1,4]diazepin-3-yl)-propionamide] | > 1000
CC(C)N1C(=O)[C@H](NC(=O)CCC2CCCCC2)N=C(c2ccccc2)c2ccccc21 [3-Cyclohexyl-N-((R)-1-isopropyl-2-oxo-5-phenyl-2,3-dihydro-1H-benzo[e][1,4]diazepin-3-yl)-propionamide] | > 1000
CN1C(=O)[C@H](NC(=O)CCC2CCCCC2)N=C(c2ccccc2)c2ccccc21 [3-Cyclohexyl-N-((R)-1-methyl-2-oxo-5-phenyl-2,3-dihydro-1H-benzo[e][1,4]diazepin-3-yl)-propionamide] | > 1000
CN1C(=O)[C@H](NC(=O)/C=C/c2ccc(Cl)cc2Cl)N=C(c2ccccc2)c2ccccc21 [(E)-3-(2,4-Dichloro-phenyl)-N-((R)-1-methyl-2-oxo-5-phenyl-2,3-dihydro-1H-benzo[e][1,4]diazepin-3-yl)-acrylamide] | > 1000
CN1C(=O)[C@H](NC(=O)CCc2ccccc2)N=C(c2ccccc2)c2ccccc21 [(R)-N-(1-methyl-2-oxo-5-phenyl-2,3-dihydro-1H-benzo[e][1,4]diazepin-3-yl)-3-phenylpropanamide] | > 1000
CN1C(=O)[C@H](NC(=O)Cc2ccccc2)N=C(c2ccccc2)c2ccccc21 [N-((R)-1-Methyl-2-oxo-5-phenyl-2,3-dihydro-1H-benzo[e][1,4]diazepin-3-yl)-2-phenyl-acetamide] | > 1000
CN1C(=O)[C@H](NC(=O)c2ccccc2)N=C(c2ccccc2)c2ccccc21 [N-((R)-1-Methyl-2-oxo-5-phenyl-2,3-dihydro-1H-benzo[e][1,4]diazepin-3-yl)-benzamide] | > 1000
